Experimental data taken from PubChem BioAssay AID2060505 (Molecular Pharmacology Branch, DTP, NCI, 2025).

Tested on: 633275-114-R-J1-PDC complex spheroids, viability
Assay: Anticancer human tumor 633275-114-R-J1-PDC patient-derived endometrial adenocarcinoma cell line growth inhibition [GQUAD]
Conditions: for IC50: curve of first compound; for viability, T/C: stronger effect = lower value; active = viability on the fitted dose curve at most 10% of control; inactive = the rest
In short: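 Tumor cells were grown as complex spheroids with HUVEC endothelial cells and mesenchymal stem cells as stroma. G-quadruplex stabilizers were combined with targeted agents over half-log dilutions from near the clinical Cmax, or from 10 microM.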

[1] = second compound 0.0316 µM, first compound 0.0316 µM
[2] = second compound 0.0316 µM, first compound 0.1 µM
[3] = second compound 0.0316 µM, first compound 0.316 µM
[4] = second compound 0.0316 µM, first compound 1 µM
[5] = second compound 0.0316 µM, first compound 3.16 µM
[6] = second compound 0.0316 µM, first compound 10 µM
[7] = second compound 0.1 µM, first compound 0.0316 µM
[8] = second compound 0.1 µM, first compound 0.1 µM
[9] = second compound 0.1 µM, first compound 0.316 µM
[10] = second compound 0.1 µM, first compound 1 µM
[11] = second compound 0.1 µM, first compound 3.16 µM
[12] = second compound 0.1 µM, first compound 10 µM
[13] = second compound 0.316 µM, first compound 0.0316 µM
[14] = second compound 0.316 µM, first compound 0.1 µM
[15] = second compound 0.316 µM, first compound 0.316 µM
[16] = second compound 0.316 µM, first compound 1 µM
[17] = second compound 0.316 µM, first compound 3.16 µM
[18] = second compound 0.316 µM, first compound 10 µM
[19] = second compound 1 µM, first compound 0.0316 µM
[20] = second compound 1 µM, first compound 0.1 µM
[21] = second compound 1 µM, first compound 0.316 µM
[22] = second compound 1 µM, first compound 1 µM
[23] = second compound 1 µM, first compound 3.16 µM
[24] = second compound 1 µM, first compound 10 µM
[25] = second compound 3.16 µM, first compound 0.0316 µM
[26] = second compound 3.16 µM, first compound 0.1 µM
[27] = second compound 3.16 µM, first compound 0.316 µM
[28] = second compound 3.16 µM, first compound 1 µM
[29] = second compound 3.16 µM, first compound 3.16 µM
[30] = second compound 3.16 µM, first compound 10 µM
[31] = second compound 10 µM, first compound 0.0316 µM
[32] = second compound 10 µM, first compound 0.1 µM
[33] = second compound 10 µM, first compound 0.316 µM
[34] = second compound 10 µM, first compound 1 µM
[35] = second compound 10 µM, first compound 3.16 µM
[36] = second compound 10 µM, first compound 10 µM
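Also: spheroids exposed to the agents for seven days.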
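For viability, T/C in this document: percent of DMSO vehicle control viability which is 100%.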

CC1COCCN1c1cc(-c2ccnn2C)c2ccnc(-c3ccn[nH]3)c2n1 (stereo unspecified) + CN(C)c1ccc(Nc2c3ccc(NC(=O)CCN4CCCC4)cc3nc3cc(NC(=O)CCN4CCCC4)ccc23)cc1
< 31.6 nM: IC50 (second compound 10 µM)
163 nM: IC50 (second compound 0.1 µM)
144 nM: IC50 (second compound 1 µM)
136 nM: IC50 (second compound 0.0316 µM)
175 nM: IC50 (second compound 0.316 µM)
90.5 nM: IC50 (second compound 3.16 µM)
inactive: viability, T/C [1] 77% | viability, T/C [2] 54.4% | viability, T/C [3] 37.3% | viability, T/C [4] 26.1% | viability, T/C [5] 18% | viability, T/C [6] 18.4% | viability, T/C [7] 92.4% | viability, T/C [8] 59.6% | viability, T/C [9] 37.1% | viability, T/C [10] 24.8% | viability, T/C [11] 18.9% | viability, T/C [12] 18.9% | viability, T/C [13] 82.2% | viability, T/C [14] 61.1% | viability, T/C [15] 37.7% | viability, T/C [16] 25.9% | viability, T/C [17] 19.4% | viability, T/C [18] 14.9% | viability, T/C [19] 74.1% | viability, T/C [20] 55.2% | viability, T/C [21] 38.3% | viability, T/C [22] 23.5% | viability, T/C [23] 18.1% | viability, T/C [24] 16.2% | viability, T/C [25] 60.3% | viability, T/C [26] 49.6% | viability, T/C [27] 33.4% | viability, T/C [28] 22.2% | viability, T/C [29] 15.8% | viability, T/C [30] 11.4% | viability, T/C [31] 30.3% | viability, T/C [32] 23.5% | viability, T/C [33] 15.9% | viability, T/C [34] 12.5% | viability, T/C [35] 10.4%
active: viability, T/C [36] 9.22%

O=C(c1cc(Cc2n[nH]c(=O)c3ccccc23)ccc1F)N1CCN(C(=O)C2CC2)CC1 + Cc1cnc(CNC(=O)c2c(=O)c3ccc(N4CCCN(C)CC4)nc3n3c2sc2ccccc23)cn1
inactive: viability, T/C [1] 63% | viability, T/C [2] 60.9% | viability, T/C [3] 71.4% | viability, T/C [4] 58.2% | viability, T/C [5] 57.2% | viability, T/C [6] 50.3% | viability, T/C [7] 49.5% | viability, T/C [8] 47.9% | viability, T/C [9] 49.1% | viability, T/C [10] 48.9% | viability, T/C [11] 41.9% | viability, T/C [12] 42.8% | viability, T/C [13] 46.6% | viability, T/C [14] 42.7% | viability, T/C [15] 43.7% | viability, T/C [16] 38.9% | viability, T/C [17] 44% | viability, T/C [18] 33.7% | viability, T/C [19] 37.7% | viability, T/C [20] 35.3% | viability, T/C [21] 45.3% | viability, T/C [22] 42.6% | viability, T/C [23] 37% | viability, T/C [24] 35.1% | viability, T/C [25] 37.8% | viability, T/C [26] 38.9% | viability, T/C [27] 42.2% | viability, T/C [28] 30.9% | viability, T/C [29] 34.3% | viability, T/C [30] 31% | viability, T/C [31] 33.4% | viability, T/C [32] 31.2% | viability, T/C [33] 28.5% | viability, T/C [34] 30.9% | viability, T/C [35] 33.7% | viability, T/C [36] 29.8%
< 31.6 nM: IC50 (second compound 0.316 µM) | IC50 (second compound 1 µM) | IC50 (second compound 3.16 µM) | IC50 (second compound 10 µM)
9930 nM: IC50 (second compound 0.0316 µM)
43.6 nM: IC50 (second compound 0.1 µM)

CC(C)n1c(=O)n(C)c2cnc3cc(F)c(-c4ccc(OCCCN5CCCCC5)nc4)cc3c21 + Cc1[nH]c2ccc(F)cc2c1-c1nc2c3cccnc3c3ncccc3c2[nH]1
inactive: viability, T/C [1] 109% | viability, T/C [2] 105% | viability, T/C [3] 109% | viability, T/C [4] 100% | viability, T/C [5] 95.3% | viability, T/C [6] 68.3% | viability, T/C [7] 109% | viability, T/C [8] 105% | viability, T/C [9] 108% | viability, T/C [10] 101% | viability, T/C [11] 97.8% | viability, T/C [12] 70.5% | viability, T/C [13] 106% | viability, T/C [14] 105% | viability, T/C [15] 99.8% | viability, T/C [16] 99.2% | viability, T/C [17] 99.9% | viability, T/C [18] 71.2% | viability, T/C [19] 106% | viability, T/C [20] 98.2% | viability, T/C [21] 103% | viability, T/C [22] 90.9% | viability, T/C [23] 98.7% | viability, T/C [24] 70.7% | viability, T/C [25] 79.8% | viability, T/C [26] 76.3% | viability, T/C [27] 76.2% | viability, T/C [28] 72.2% | viability, T/C [29] 68.9% | viability, T/C [30] 55.1% | viability, T/C [31] 76.4% | viability, T/C [32] 74.4% | viability, T/C [33] 73.9% | viability, T/C [34] 74.1% | viability, T/C [35] 75% | viability, T/C [36] 55.4%
> 10000 nM: IC50 (second compound 0.0316 µM) | IC50 (second compound 0.1 µM) | IC50 (second compound 0.316 µM) | IC50 (second compound 1 µM) | IC50 (second compound 3.16 µM) | IC50 (second compound 10 µM)
